Patent publication US20130072424A1, “COMPOUNDS AND METHODS FOR PEPTIDE RIBONUCLEIC ACID CONDENSATE PARTICLES FOR RNA THERAPEUTICS” (MARINA BIOTECH, INC., priority 2005, published 2013)
Ends that are not written are not given here.

Key:
[1] = tested on: mouse tail fibroblast (MTF) cells; assay: siRNA cell-uptake assay and MFI (Cy5-conjugated siRNA, flow cytometry), Examples 14-16; assay type: cell-based; settings: PN73 mutant series
Description: As described above, the cell-uptake assay determines the number of cells that receive Cy5-conjugated siRNA when complexed with a peptide. siRNA cell-uptake was assessed by flow cytometry (refer to Example 2 for details). Uptake was expressed as a percentage calculated by dividing the number of cells containing Cy5-conjugated siRNA by the total number of transfected and untransfected cells in culture. Mean Fluorescence Intensity (MFI) was measured by flow cytometry and determined the amount of Cy5-conjugated siRNA found within cells. The MFI value directly correlates with the amount of Cy5-conjugated siRNA within the cell, thus, a higher MFI value indicates a greater number of Cy5-conjugated siRNA within the cells.
The siRNA cell-uptake assay and MFI measurements were performed as described previously in Examples 2 and 3. […]

in vitro = settings: mouse, mouse tail fibroblast (MTF) cells
Description: Fluorescence activated cell sorting (FACS) analysis were performed using Beckman Coulter FC500 cell analyzer (Fullerton, Calif.). The instrument was adjusted according to the fluorescence probes used (FAM or Cy5 for siRNA and FITC and PE for CD14). Propidium iodide (Fluka, St Louis) and AnnexinV (R&D systems, Minneapolis) were used as indicators for cell viability and cytotoxicity. A brief step-by-step protocol is detailed below. • (a) After exposure to the complex of siRNA/peptide, cells were incubated for at least 3 hours. • (b) Wash cells with 200 μl PBS. • (c) Detach cells with 15 μl TE, incubate at 370 C. • (d) Re-suspend cells in five wells with 30 μl FACS solution (PBS with 0.5% BSA, and 0.1% sodium Azide). • (e) Combine all five wells into a tube. • (f) Add PI (Propidium iodide) 5 μl into each tube. • (g) Analyze the cells with fluorescence activated cell sorting (FCAS) according to manufacturer's instructions.
For siRNA uptake analysis, cells were washed with PBS, treated with trypsin (attached cells only), and then analyzed by flow cytometry. […] In order to differentiate the cellular uptake from the membrane insertion of fluorescence labeled siRNA, trypan blue was used to quench the fluorescence on the cell membrane surface.
FITC-tagged peptides were diluted in Opti-MEM® media (Invitrogen) for about 5 minutes at room temperature and then added to cells. Cells were transfected for 3 hours at and washed with PBS, treated with trypsin, and then analyzed by flow cytometry. Cell viability was determined as above. Cellular uptake was distinguished from the membrane insertion using trypan blue to quench any fluorescence on the cell membrane surface.

Compound	% siRNA Cell-Uptake ([1]; peptide 0.63 μM)	siRNA Cy5 MFI ([1]; peptide 0.63 μM)	% siRNA Cell-Uptake ([1]; peptide 1.25 μM)	siRNA Cy5 MFI ([1]; peptide 1.25 μM)	% siRNA Cell-Uptake ([1]; peptide 2.5 μM)	siRNA Cy5 MFI ([1]; peptide 2.5 μM)	% siRNA Cell-Uptake ([1]; peptide 5 μM)	siRNA Cy5 MFI ([1]; peptide 5 μM)	viability at 0.63 µM (in vitro)	viability at 1.25 µM (in vitro)	viability at 2.5 µM (in vitro)	viability at 5 µM (in vitro)
KGSFKAVTKAQKKFGKKRKRSRKSFSVYVYKVLKQ-NH2 [PN729]	61%	4	69%	10	79%	16	86%	30	82%	91%	92%	90%
CC(C)C[C@H](NC(=O)[C@@H](NC(=O)[C@H](CCCCN)NC(=O)[C@H](Cc1ccc(O)cc1)NC(=O)[C@@H](NC(=O)[C@H](Cc1ccc(O)cc1)NC(=O)[C@@H](NC(=O)[C@H](Cc1c[nH]c2ccccc12)NC(=O)[C@H](Cc1ccc(O)cc1)NC(=O)[C@H](CO)NC(=O)[C@H](CCC(=O)O)NC(=O)[C@H](CCCCN)NC(=O)[C@H](CCCNC(=N)N)NC(=O)[C@H](CO)NC(=O)[C@H](CCCNC(=N)N)NC(=O)[C@H](CCCCN)NC(=O)[C@H](CCCNC(=N)N)NC(=O)[C@H](CCCCN)NC(=O)[C@H](CCCCN)NC(=O)CNC(=O)[C@H](CC(=O)O)NC(=O)[C@H](CCCCN)NC(=O)[C@H](CCCCN)NC(=O)[C@H](CCC(N)=O)NC(=O)[C@H](C)NC(=O)[C@H](CCCCN)NC(=O)[C@@H](NC(=O)[C@@H](NC(=O)[C@H](C)NC(=O)[C@H](CCCCN)NC(=O)[C@H](CCCCN)NC(=O)[C@H](CO)NC(=O)CNC(=O)[C@@H](N)CCCCN)C(C)C)[C@@H](C)O)C(C)C)C(C)C)C(C)C)C(=O)N[C@@H](CCCCN)C(=O)N[C@@H](CCC(N)=O)C(N)=O [PN644]	67%	4	71%	8	70%	24	83%	37	88%	90%	86%	87%
KGSFKAVTKAQKKDGKKRKRSFKFSYSVYVYKVLKQ-NH2 [PN647]	71%	13	74%	34	83%	39	85%	41	85%	83%	88%	87%
CC(C)C[C@H](NC(=O)[C@@H](NC(=O)[C@H](CCCCN)NC(=O)[C@H](Cc1ccc(O)cc1)NC(=O)[C@@H](NC(=O)[C@H](Cc1ccc(O)cc1)NC(=O)[C@@H](NC(=O)[C@H](CO)NC(=O)[C@H](Cc1ccc(O)cc1)NC(=O)[C@H](CO)NC(=O)[C@H](Cc1ccccc1)NC(=O)[C@H](CCCCN)NC(=O)[C@H](CCCNC(=N)N)NC(=O)[C@H](CO)NC(=O)[C@H](CCCNC(=N)N)NC(=O)[C@H](CCCCN)NC(=O)[C@H](CCCNC(=N)N)NC(=O)[C@H](CCCCN)NC(=O)[C@H](CCCCN)NC(=O)CNC(=O)[C@H](CC(=O)O)NC(=O)[C@H](CCCCN)NC(=O)[C@H](CCCCN)NC(=O)[C@H](CCC(N)=O)NC(=O)[C@H](C)NC(=O)[C@H](CCCCN)NC(=O)[C@@H](NC(=O)[C@@H](NC(=O)[C@H](C)NC(=O)[C@H](CCCCN)NC(=O)[C@H](CCCCN)NC(=O)[C@H](CO)NC(=O)CNC(=O)[C@@H](N)CCCCN)C(C)C)[C@@H](C)O)C(C)C)C(C)C)C(C)C)C(=O)N[C@@H](CCCCN)C(=O)N[C@@H](CCC(N)=O)C(N)=O [PN646]	67%	4	70%	10	73%	24	88%	24	81%	85%	87%	92%
